Data: patent US20130064712A1, “Composite comprising at least one type of perfluoroalkyl-perfluoro-phthalocyanine” (priority 2009, published 2013)

How the values were obtained:
[1] = Singlet oxygen quantum yield; format: physicochemical
Jurkat cells = test: Accumulation of free F64PcZn in Jurkat cells; format: cell-based, human; conditions: free F64PcZn incubated with the cell suspensions
From the text: If the composite is used also on human skin there is a probability of PS loss by the photoactive foil. In order to protect the human body against undesired phototoxic effects it is important to make sure that the free molecules are not able to enter human cells.
Laser Phys. 13:22-29 b) M. Regehly , K. Greish, F. Rancan, H. Maeda, B. Röder: Water-soluble polymer conjugates of ZnPP for photodynamic therapy, Bioconjugate Chemistry, 18 (2007) 494-499. c) K. Chen, A. Preuβ, S. Hackbarth, M. Wacker, K. Langer, B. Röder: Novel photosensitizer-protein nanoparticles for Photodynamic Therapy: Photophysical characterization and in vitro investigations, J. Photochem. Photobiol.: B, in press May 2009). It is important to mention that phthalocyanines also belong to the class of tetrapyroles and thus the above comparison is meaningful. Thus, incubating the cell suspensions according to the procedure described in a) Paul A, Hackbarth S, Mölich A, Seifert M, Röder B (2003) Comparative Study on the Photosensitization of Jurkat Cells in vitro by Pheophorbide-a and a Pheophorbide-a Diaminobutane polypropylene-imine Dendrimer Complex. Laser Phys. […]

Question: With “1, 4, 8, 11, 15, 18, 22, 25-octafluoro-2, 3, 9, 10, 16, 17, 23, 24-octa-perfluoro-isopropyl-phthalocyanine [F64PcZn]” as the substance, how does the “singlet oxygen quantum yield” value [1] read?
Answer: The value was “around 56%”.

Question: What about the “accumulation of the dye inside the cells” value (Jurkat cells) of the same substance?
Answer: Its value is “undetectable accumulation”.
